Laboratory results from patent publication US12370235B2, “Synthetic, non-natural antimicrobial peptides inspired by Staphylococcus auricularis delta toxin” (University of Saskatchewan, priority 2021, dated 2025).
Ends that are not written are not given here.

Tests used:
[1] = test system: Mannheimia haemolytica ATCC 33393; experiment: MIC, broth dilution; type: cell-based; details: Table 11; highest concentration 25 μg/mL
How it was run: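 Peptides (95% purity) in 2-fold dilution series were mixed with M. haemolytica diluted to OD 6×10^−4 in cation-adjusted Mueller Hinton broth and incubated standing overnight at 37 °C. MIC was the lowest concentration with no visible growth.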

[2] = test system: S. aureus / MRSA (ATCC MP-2 panel); type: cell-based, Staphylococcus aureus; details: MIC screen, in words
Procedure: In order to begin to characterize STIP3-1 and potential sites amenable to modification, an alanine scanning experiment was performed. A total of 16 peptides with single alanine substitutions were assessed to inform on the importance of individual residues to antimicrobial activity. […] Next a series of thirty STIP3-1 variants were designed, guided by the aforementioned alanine scan and a previous report that the central α-helical core of the S. aureus δ-toxin could be converted into AMP through the inclusion of additional lysine residues^39. The collection included ten members with single substitutions relative to STIP3-1 and others that incorporated a number of changes that were designed to increase overall and local cationic charge as well as hydrophobic character (Table 5). Each of the STIPs was screened, including STIP3-1 to STIP-31, for antibiotic activity against a methicillin-sensitive S. aureus test organism and a panel of 7 MRSA strains defined by distinct SCCmec genotypes (FIG. 2; ATCC MP-2).
Determination of minimum inhibitory concentrations. The MICs were measured for bioactive peptides identified from the initial screen. For bacterial studies, cation-adjusted Mueller Hinton (MH) broth was used as the growth medium whereas YPD was used for C. albicans. Bacterial cultures were diluted to a OD value of 6×10^−4 in MH broth and a 180 μl volume was mixed with 20 μl of peptide arrayed as 2-fold dilution series in a 96-well plate. For the positive control, 20 μl of sterile water was used. Plates were incubated as standing cultures overnight at 37° C. The lowest peptide concentration that resulted no observed microbial growth after an overnight treatment was defined as the MIC.

[3] = test system: S. aureus ATCC BAA-44 (MRSA SCCmec type I); experiment: MIC, broth dilution; type: cell-based, Staphylococcus aureus; details: Table 5; STIP3 variants, highest concentration 100 μg/mL
How it was run: (§1)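 Peptides of 95% purity tested as 2-fold dilution series against bacteria diluted to OD 6×10^−4 in cation-adjusted Mueller Hinton broth. Standing cultures incubated overnight at 37° C; MIC is the lowest concentration with no visible growth.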

[4] = test system: S. aureus ATCC BAA-1683 (MRSA SCCmec type IV); experiment: MIC, broth dilution; type: cell-based, Staphylococcus aureus; details: Table 5; STIP3 variants, highest concentration 100 μg/mL
How it was run: as §1

[5] = test system: S. aureus ATCC BAA-41 (MRSA SCCmec type II); experiment: MIC, broth dilution; type: cell-based, Staphylococcus aureus; details: Table 5; STIP3 variants, highest concentration 100 μg/mL
How it was run: as §1

[6] = test system: S. aureus ATCC BAA-42 (MRSA SCCmec type VI); experiment: MIC, broth dilution; type: cell-based, Staphylococcus aureus; details: Table 5; STIP3 variants, highest concentration 100 μg/mL
How it was run: as §1

[7] = test system: S. aureus ATCC BAA-2094 (MRSA SCCmec type V); experiment: MIC, broth dilution; type: cell-based, Staphylococcus aureus; details: Table 5; STIP3 variants, highest concentration 100 μg/mL
How it was run: as §1

[8] = test system: S. aureus ATCC BAA-2313 (MRSA SCCmec type XI); experiment: MIC, broth dilution; type: cell-based, Staphylococcus aureus; details: Table 5; STIP3 variants, highest concentration 100 μg/mL
How it was run: as §1

[9] = test system: S. aureus ATCC 29213; experiment: MIC, broth dilution; type: cell-based, Staphylococcus aureus; details: Table 5; STIP3 variants, highest concentration 100 μg/mL
How it was run: as §1

[10] = test system: S. aureus ATCC 33592 (MRSA SCCmec type III); experiment: MIC, broth dilution; type: cell-based, Staphylococcus aureus; details: Table 5; STIP3 variants, highest concentration 100 μg/mL
How it was run: as §1

[11] = test system: Saccharomyces cerevisiae AR 400; experiment: MIC, YPD broth, CDC and FDA AR Candida isolate panel; type: cell-based; details: Table 9 below the line: only 200 or 100 μg/mL tested; values reported as 100 are ≤100 μg/mL
How it was run: (§2)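 Each isolate was diluted to an optical density of […] and combined with peptide at twofold stepwise concentrations. Plates then sat unshaken overnight at 37° C. Sterile water replaced peptide in control wells.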

[12] = test system: Candida krusei AR 397; experiment: as above; type: cell-based; details: Table 9 below the line: only 200 or 100 μg/mL tested; values reported as 100 are ≤100 μg/mL
How it was run: as §2

[13] = test system: Saccharomyces cerevisiae AR 399; experiment: as above; type: cell-based; details: Table 9 below the line: only 200 or 100 μg/mL tested; values reported as 100 are ≤100 μg/mL
How it was run: as §2

[14] = test system: Candida duobushaemulonii AR 391; experiment: as above; type: cell-based; details: Table 9 below the line: only 200 or 100 μg/mL tested; values reported as 100 are ≤100 μg/mL
How it was run: as §2

[15] = test system: Candida haemulonii AR 393; experiment: as above; type: cell-based; details: Table 9 below the line: only 200 or 100 μg/mL tested; values reported as 100 are ≤100 μg/mL
How it was run: as §2

[16] = test system: Candida lusitaniae AR 398; experiment: as above; type: cell-based; details: Table 9 below the line: only 200 or 100 μg/mL tested; values reported as 100 are ≤100 μg/mL
How it was run: as §2

[17] = test system: Candida duobushaemulonii AR 394; experiment: as above; type: cell-based; details: Table 9 below the line: only 200 or 100 μg/mL tested; values reported as 100 are ≤100 μg/mL
How it was run: as §2

[18] = test system: Kodamae ohmeri AR 396; experiment: as above; type: cell-based; details: Table 9 below the line: only 200 or 100 μg/mL tested; values reported as 100 are ≤100 μg/mL
How it was run: as §2

[19] = test system: Candida haemulonii AR 395; experiment: as above; type: cell-based; details: Table 9 below the line: only 200 or 100 μg/mL tested; values reported as 100 are ≤100 μg/mL
How it was run: as §2

[20] = test system: Candida duobushaemulonii AR 392; experiment: as above; type: cell-based; details: Table 9 below the line: only 200 or 100 μg/mL tested; values reported as 100 are ≤100 μg/mL
How it was run: as §2

[21] = test system: C. albicans MYA-2876; experiment: MIC, YPD broth; type: cell-based, Candida albicans; details: Table 8
How it was run: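 Minimum inhibitory concentrations against Candida albicans were determined in YPD broth (10 g/L yeast extract, 20 g/L peptone, 20 g/L dextrose) using peptides of 95% purity. A 180 μl volume of diluted yeast was combined with 20 μl of peptide in a 2-fold dilution series in 96-well plates, with sterile water as control, then incubated standing overnight at 37° C.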

[22] = Circular dichroism spectroscopy; type: physicochemical; details: CD, 50% (v/v) TFE
Excerpt: The δ-toxins and the PSMs are characterized as α-helical peptides that form amyloid fibers^48. Although the propensity of individual peptides to form amyloids is correlated to their cytotoxicity^49, the amyloid form is not directly implicated in cell membrane disruption^50. […] CD spectroscopy was used to investigate the secondary structure of a subset of peptides within the collection (FIG. 4A, Table 5). The STIP variants adopted α-helical forms in 50% (v/v) trifluoroethanol (TFE), though unlike the full-length S. auricularis δ-toxin, they were unstructured in water. […] Specifically, peptides characterized by the greatest and least α-helical content in TFE had MICs above the highest tested threshold.
Circular dichroism spectroscopy. Peptides were dissolved in water at concentrations between 0.3 and 0.5 mg/mL. CD spectra were recorded on an Applied Photophysics Chirascan Plus CD spectrophotometer at room temperature in a 0.1 cm path-length quartz cuvette. Spectra were recorded from 180 to 260 nm.

[23] = test system: C. albicans Y537; experiment: MIC, YPD broth; type: cell-based, Candida albicans; details: Table 8

Substance	MIC (μg/mL) M. haemolytica [1]	MIC S. aureus ATCC BAA 44 (I) [3]	MIC S. aureus ATCC BAA 1683 (IV) [4]	MIC S. aureus ATCC BAA 41 (II) [5]	MIC S. aureus ATCC BAA 42 (VI) [6]	MIC S. aureus ATCC BAA 2094 (V) [7]	MIC S. aureus ATCC BAA 2313 (XI) [8]	MIC S. aureus ATCC 29213 [9]	MIC S. aureus ATCC 33592 (III) [10]	MIC (μg/mL) Saccharomyces cerevisiae AR 400 [11]	MIC (μg/mL) Candida krusei AR 397 [12]	MIC (μg/mL) Saccharomyces cerevisiae AR 399 [13]	MIC (μg/mL) Candida duobushaemulonii AR 391 [14]	MIC (μg/mL) Candida haemulonii AR 393 [15]	MIC (μg/mL) Candida lusitaniae AR 398 [16]	MIC (μg/mL) Candida duobushaemulonii AR 394 [17]	MIC (μg/mL) Kodamae ohmeri AR 396 [18]	MIC (μg/mL) Candida haemulonii AR 395 [19]	MIC (μg/mL) Candida duobushaemulonii AR 392 [20]	MIC C. albicans MYA-2876 [21]	further results
TVGVLVKWILNVVAKFA [STIP3-24, TVGVLVKWILNVVAKFA]	> (> symbol indicates that no inhibition was observed at the highest concentration of peptide tested: 25 μg/mL)	> (no inhibition was observed at the highest concentration of peptide tested: 100 μg/mL for the STIP3 variants)	> (no inhibition was observed at the highest concentration of peptide tested: 100 μg/mL for the STIP3 variants)	> (no inhibition was observed at the highest concentration of peptide tested: 100 μg/mL for the STIP3 variants)	> (no inhibition was observed at the highest concentration of peptide tested: 100 μg/mL for the STIP3 variants)	> (no inhibition was observed at the highest concentration of peptide tested: 100 μg/mL for the STIP3 variants)	> (no inhibition was observed at the highest concentration of peptide tested: 100 μg/mL for the STIP3 variants)	> (no inhibition was observed at the highest concentration of peptide tested: 100 μg/mL for the STIP3 variants)	> (no inhibition was observed at the highest concentration of peptide tested: 100 μg/mL for the STIP3 variants)	≤ 100 µg/mL	> (values below the line were determined using two concentrations of peptide 200 or 100 μg/mL)	≤ 100 µg/mL	> (values below the line were determined using two concentrations of peptide 200 or 100 μg/mL)	> (values below the line were determined using two concentrations of peptide 200 or 100 μg/mL)	≤ 100 µg/mL	> (values below the line were determined using two concentrations of peptide 200 or 100 μg/mL)	> (values below the line were determined using two concentrations of peptide 200 or 100 μg/mL)	> (values below the line were determined using two concentrations of peptide 200 or 100 μg/mL)	> (values below the line were determined using two concentrations of peptide 200 or 100 μg/mL)	> (> symbol indicates that no inhibition was observed at the highest concentration of peptide tested: 100 μg/mL)	inhibition of S. aureus [2]: incapable of inhibiting S. aureus
TVGGLVKWILATVKKFA-NH2 [STIP3-28, TVGGLVKWILATVKKFA-NH2]	12.5 µg/mL	12.5 µg/mL	12.5 µg/mL	12.5 µg/mL	12.5 µg/mL	6.25 µg/mL	12.5 µg/mL	25 µg/mL	6.25 µg/mL	≤ 100 µg/mL	≤ 100 µg/mL	≤ 100 µg/mL	> (values below the line were determined using two concentrations of peptide 200 or 100 μg/mL)	> (values below the line were determined using two concentrations of peptide 200 or 100 μg/mL)	≤ 100 µg/mL	> (values below the line were determined using two concentrations of peptide 200 or 100 μg/mL)	≤ 100 µg/mL	≤ 100 µg/mL	> (values below the line were determined using two concentrations of peptide 200 or 100 μg/mL)	12.5 µg/mL	α helicity (%) [22]: 75%; MIC C. albicans Y537 [23]: 25 µg/mL
